# Measurements: PubChem BioAssay (NCI)
# “And” between values parts separate entries of the source, which are not always exact repeats. Equal entries are not always repeated.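 1) Cells in 96-well plates. 2) Compound, 48 h, 5 concentrations. 3) Linear interpolation between surrounding doses. 4) Unreached endpoint = highest concentration. GI50 is the concentration that inhibits growth by half. TGI is the concentration that stops growth completely.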
# What was measured:
# Experiment in all cases: growth of human tumour cells (NCI), 48 h
# [1] = system: K-562 leukemia
# [2] = system: CAKI-1 renal
# [3] = system: HL-60(TB) leukemia
# [4] = system: SR leukemia
# [5] = system: SK-MEL-5 melanoma
# [6] = system: PC-3 prostate
# [7] = system: A549 NSCLC
# [8] = system: TK-10 renal
# [9] = system: COLO 205 colon
# [10] = system: SK-MEL-28 melanoma
Compound,GI50 [1],TGI [1],TGI [2],TGI [3],TGI [4],GI50 [5],TGI [5],TGI [6],GI50 [7],TGI [7],TGI [8],TGI [9] [µM],TGI [10],GI50 [3],GI50 [4] [nM],GI50 [6],GI50 [9],GI50 [10],GI50 [2],GI50 [8] [µM]
COc1cc(Nc2nc3ccccc3nc2NS(=O)(=O)c2ccc(NC(=O)c3ccc(C)c(OC)c3)cc2)cc(OC)c1,5340 nM and 18700 nM and > 5290 nM,> 100 µM and 46.4 µM and > 10 µM,> 100 µM and 73.8 µM and > 6.67 µM,38 µM and 52.9 µM and > 8.02 µM,51.2 µM and 49.1 µM and > 10 µM,4190 nM and 11400 nM and 1710 nM,38.4 µM and 28.7 µM and > 6.54 µM,> 100 µM and 74.9 µM and > 6.71 µM,4.38 µM and 13.3 µM and 1.79 µM,> 100 µM and 80.4 µM and > 9.12 µM,37.6 µM and 54.1 µM and > 6.03 µM,,,,,,,,,
O=c1ccs[nH]1,,64.6 µM,22.2 µM,25 µM,16.4 µM,,46.5 µM,31.4 µM,,41.4 µM,32.8 µM,30.9,67.5 µM,,,,,,,
COc1cccc(/C=C/[N+](=O)[O-])c1,2920 nM,11.5 µM,,5.77 µM,5.18 µM,10500 nM,22.5 µM,17 µM,5.06 µM,25.4 µM,,3.54,6.28 µM,2310 nM,1640,4580 nM,1860 nM,2390 nM,,
CC1=C(C(=O)Nc2ccc(Cl)c(Cl)c2)C(c2cccc(Cl)c2)NC(=O)N1 (configuration not stated),13600 nM,48.4 µM,19.9 µM,> 35.7 µM,> 50 µM,8930 nM,17.4 µM,> 50 µM,17.3 µM,> 50 µM,0.346 µM,21.2,,10600 nM,22300,> 50000 nM,9420 nM,,9.42 µM,0.22
Cc1ccc2c(-c3ccnc(Nc4ccccc4)n3)c(-c3ccc(F)cc3)nn2n1,13500 nM,> 25 µM,> 25 µM,> 25 µM,> 25 µM,4750 nM,11.4 µM,> 25 µM,5.28 µM,> 25 µM,10.8 µM,> 25,> 25 µM,9560 nM,11700,9970 nM,11100 nM,12200 nM,1.41 µM,1.62
Cc1ccc(Cc2cnc(NC(=O)/C=C/c3cccc(C)c3)s2)cc1,46.9 nM,> 100 µM,11 µM,0.559 µM,2.23 µM,404 nM,> 100 µM,> 100 µM,0.29 µM,> 67.7 µM,6.81 µM,> 100,> 100 µM,93.3 nM,44.9,154 nM,355 nM,1350 nM,0.0663 µM,0.919
CC(=C/C=C/C=C(C)\C=C\C=C(\C)C(=O)O)/C=C/C=C(/C)C(=O)O,,> 100 µM,> 100 µM,> 100 µM,> 100 µM,,> 100 µM,> 100 µM,,> 100 µM,> 100 µM,> 100,> 100 µM,,,,,,,
COc1cc2ncn(-c3cc(O[C@@H](C)c4ccccc4Cl)c(C(N)=O)s3)c2cc1OC,983 nM,> 25 µM,> 25 µM,2.86 µM,> 18.8 µM,247 nM,5.26 µM,> 25 µM,1.45 µM,> 25 µM,> 23.1 µM,> 25,> 25 µM,728 nM,701,2550 nM,444 nM,3840 nM,6.8 µM,4.14
C=C(CN1CCN(c2cccc(C(F)(F)F)n2)CC1)c1ccc(C(=O)Nc2ccccc2N)cc1,623 nM,> 100 µM,> 100 µM and 25.7 µM,1 µM and 2.13 µM,> 100 µM,403 nM and 397 nM,,> 100 µM,3.33 µM and 0.39 µM,> 100 µM,> 100 µM and 35.4 µM,,> 100 µM and 15.5 µM,322 nM and 297 nM,> 39100,420 nM and 484 nM,3340 nM and 907 nM,2080 nM and 422 nM,0.512 µM and 0.52 µM,
COc1cc2c(cc1OC)-c1ccc3cc4c(cc3c1N(CCCn1ccnc1)C2)OCO4,,,,5.71 µM,> 100 µM,2220 nM,10.2 µM,36.7 µM,8.39 µM,32.1 µM,60.5 µM,6.12,17.7 µM,1920 nM,579,4180 nM,1490 nM,3740 nM,,25.2
O=C(O)CCCSc1ccccc1,,> 100 µM,> 100 µM,> 100 µM,> 100 µM,,> 100 µM,> 100 µM,,> 100 µM,> 100 µM,> 100,> 100 µM,,,,,,,
N#Cc1ccc2c(c1)C(=O)c1c-2n(CCCCl)c(=O)c2cc([N+](=O)[O-])ccc12,,,> 100 µM,29.9 µM,1.7 µM,5070 nM,71.5 µM,> 100 µM,,,> 100 µM,> 100,> 100 µM,11400 nM,178,19100 nM,> 100000 nM,41100 nM,18 µM,42.9
C[C@@H](O)[C@H](NC(=O)N[C@@H](CC(N)=O)c1nc([C@@H](N)CO)no1)C(=O)O,,,> 100 µM,> 100 µM,> 100 µM,> 100000 nM,> 100 µM,> 100 µM,> 100 µM,> 100 µM,> 100 µM,> 100,> 100 µM,> 100000 nM,> 100000,> 100000 nM,> 100000 nM,> 100000 nM,> 100 µM,> 100
C=C1C(=O)O[C@H]2[C@H]1CC/C(COC(=O)c1cc3ccccc3o1)=C\CC[C@@]1(C)O[C@@H]21,1150 nM,7.43 µM,,3.68 µM,5.33 µM,1520 nM,2.89 µM,3.72 µM,2.91 µM,12 µM,9.45 µM,3.15,3.59 µM,1220 nM,1150,1760 nM,1550 nM,1750 nM,,3.01
Nc1c2c(c(O)c3c1=C(CO)C=N3)=NCCS2,243 nM,0.682 µM,,0.512 µM,0.774 µM,21.5 nM,0.0543 µM,1.05 µM,0.0561 µM,0.219 µM,1.46 µM,0.146,0.804 µM,222 nM,235,287 nM,39.7 nM,283 nM,,0.42
Cc1cc(=O)oc2c(C)c(O)ccc12,,> 100 µM,> 100 µM,> 100 µM,> 100 µM,,> 100 µM,> 100 µM,,> 100 µM,,> 100,> 100 µM,,,,,,,
O=S(=O)(NCCCNc1nccc(-c2c(-c3ccc(F)c(O)c3)nc3sccn23)n1)c1ccc(F)cc1,1980 nM,> 100 µM,> 100 µM,5.26 µM,> 100 µM,1420 nM,2.8 µM,,3.02 µM,47.1 µM,86.3 µM,9.67,> 100 µM,1860 nM,2130,,1480 nM,104 nM,3.57 µM,4.33
CNC/C(Cl)=N/S(=O)(=O)c1ccc(C)cc1,,> 100 µM,26.2 µM,,34.9 µM,,36.7 µM,22.8 µM,,51.4 µM,28.6 µM,38.2,> 100 µM,,,,,,,
COc1ccc(NC([Se])=NC23CC4CC(CC(C4)C2)C3)cc1,542 nM,18.8 µM,10.2 µM,5.91 µM,> 100 µM,558 nM,1.79 µM,32.2 µM,2.38 µM,7.78 µM,5.52 µM,3.95,,2150 nM,1670,696 nM,1660 nM,,2.57 µM,2.1
CCN(CC)CCCNC(=O)C1COc2cc(-c3cc(=O)c4ccccc4o3)ccc2O1 (configuration not stated),,> 100 µM,> 100 µM,> 100 µM,47.9 µM,,37.6 µM,,,> 100 µM,> 100 µM,81.4,40.8 µM,,,,,,,
CC1=C[C@]2(O)C(=O)[C@H](C)C[C@H]3[C@@H](CC[C@@](C)(O)/C=C\2C1=O)C3(C)C,,> 100 µM,55.4 µM,> 100 µM,45.2 µM,,50.8 µM,,,> 100 µM,> 78.7 µM,30.6,33.1 µM,,,,,,,
C=C(NC(=O)C(=C)NC(=O)c1csc(C2=NC3c4csc(n4)C4NC(=O)c5csc(n5)C(C(C)(O)C(C)O)NC(=O)C5CSC(=N5)C(=CC)NC(=O)C(C(C)O)NC(=O)c5csc(n5)C3(CC2)NC(=O)C(C)NC(=O)C(=C)NC(=O)C(C)NC(=O)C(C(C)CC)NC2C=Cc3c(C(C)O)cc(nc3C2O)C(=O)OC4C)n1)C(N)=O (configuration not stated),,,> 100 µM,31.7 µM,69.1 µM,4690 nM,19.8 µM,> 100 µM,57.3 µM,> 100 µM,> 100 µM,13.7,24.5 µM,5130 nM,,77500 nM,2720 nM,7090 nM,14.6 µM,65.5
